Experimental data published in the NIST ThermoML archive (doi:10.1016/j.jct.2010.05.002).
Numbers after ± are expanded uncertainties.

Assay: molar heat capacity at constant pressure
Conditions: 101.33 kPa, Crystal 2, Vacuum adiabatic calorimetry

Cc1ccc(-c2ccccc2)cc1 [4-methylbiphenyl]
Conditions | molar heat capacity at constant pressure [J/K/mol]
83.21 K | 81.22 ± 0.52
84.78 K | 82.63 ± 0.56
85.83 K | 84.24 ± 0.56
87.34 K | 85.25 ± 0.56
88.37 K | 86.4 ± 0.57
89.4 K | 87.09 ± 0.56
90.43 K | 87.85 ± 0.57
91.47 K | 88.19 ± 0.58
92.5 K | 89.19 ± 0.59
93.53 K | 89.62 ± 0.59
94.55 K | 90.59 ± 0.6
95.58 K | 91.13 ± 0.61
96.61 K | 92.3 ± 0.65
97.64 K | 93.83 ± 0.6
98.66 K | 92.61 ± 0.59
99.69 K | 94.23 ± 0.65
100.72 K | 95.15 ± 0.61
101.74 K | 95.13 ± 0.61
102.77 K | 95.55 ± 0.62
104.82 K | 96.61 ± 0.63
105.84 K | 97.41 ± 0.65
106.86 K | 98.57 ± 0.66
107.88 K | 99.36 ± 0.64
108.9 K | 99.57 ± 0.64
109.93 K | 100.46 ± 0.65
110.95 K | 100.63 ± 0.64
111.97 K | 100.49 ± 0.65
112.99 K | 102.03 ± 0.68
114.01 K | 102.56 ± 0.66
115.02 K | 103.36 ± 0.69
116.04 K | 104.67 ± 0.68
117.06 K | 104.77 ± 0.67
118.08 K | 104.33 ± 0.67
119.1 K | 105.95 ± 0.72
120.12 K | 106.87 ± 0.68
121.14 K | 106.67 ± 0.68
122.15 K | 107.47 ± 0.7
123.17 K | 108.38 ± 0.69
124.18 K | 108.38 ± 0.69
125.2 K | 108.94 ± 0.71
126.21 K | 110.22 ± 0.72
127.23 K | 110.82 ± 0.71
128.23 K | 111.43 ± 0.7
129.25 K | 111 ± 0.71
130.26 K | 112.24 ± 0.76
131.27 K | 113.68 ± 0.72
132.28 K | 113.17 ± 0.72
133.29 K | 114.17 ± 0.75
134.3 K | 115.39 ± 0.75
135.31 K | 115.98 ± 0.73
136.32 K | 115.79 ± 0.73
137.33 K | 115.95 ± 0.74
138.33 K | 116.76 ± 0.77
139.34 K | 118.07 ± 0.78
140.34 K | 119.05 ± 0.76
141.35 K | 119.04 ± 0.75
142.35 K | 119.96 ± 0.76
143.36 K | 120 ± 0.76
144.35 K | 120.48 ± 0.76
145.36 K | 120.67 ± 0.77
146.36 K | 122 ± 0.78
147.36 K | 122.17 ± 0.8
148.36 K | 124.22 ± 0.83
149.36 K | 124.87 ± 0.79
150.36 K | 125.07 ± 0.79
151.36 K | 125.72 ± 0.8
153.66 K | 127.07 ± 0.8
154.92 K | 127.26 ± 0.8
155.92 K | 127.72 ± 0.81
156.91 K | 128.68 ± 0.82
157.91 K | 129.05 ± 0.82
158.9 K | 129.98 ± 0.84
159.89 K | 130.91 ± 0.84
162.88 K | 133.43 ± 0.84
163.87 K | 132.72 ± 0.83
164.87 K | 133.55 ± 0.84
165.85 K | 133.77 ± 0.85
166.84 K | 134.91 ± 0.87
167.83 K | 135.89 ± 0.87
169.79 K | 137.42 ± 0.86
170.78 K | 137.22 ± 0.86
171.76 K | 137.79 ± 0.87
172.74 K | 138.45 ± 0.87
173.73 K | 139.11 ± 0.89
174.71 K | 140.53 ± 0.89
175.69 K | 140.7 ± 0.88
176.68 K | 141.47 ± 0.9
177.66 K | 142.43 ± 0.9
178.64 K | 143.15 ± 0.9
179.62 K | 143.76 ± 0.9
180.6 K | 144.25 ± 0.91
181.58 K | 145.06 ± 0.92
182.56 K | 146.17 ± 0.92
183.54 K | 146.07 ± 0.91
184.52 K | 146.77 ± 0.94
185.47 K | 148 ± 0.94
186.45 K | 148.42 ± 0.93
187.42 K | 148.71 ± 0.94
188.4 K | 149.77 ± 0.95
189.37 K | 150.31 ± 0.95
190.34 K | 151.29 ± 0.97
191.32 K | 152.46 ± 0.97
192.29 K | 153.07 ± 0.96
193.26 K | 153.26 ± 0.96
194.23 K | 154.48 ± 0.98
195.2 K | 154.92 ± 0.97
196.17 K | 155.18 ± 0.98
197.14 K | 156.43 ± 0.98
198.1 K | 156.66 ± 0.97
199.07 K | 156.85 ± 0.99
